Assay results: US6369101B1, “Therapeutic method to treat herpes virus infection” (Regents of the University of Minnesota, priority 1999, dated 2002)
Values after ≈ are worked out from the molar mass of the structure shown.

Columns and labels:
[1] = system: HSV-1 strain F; experiment: CPE inhibition, HSV-1 strain F in HEp-2 cells; as to Cytopathic Effect (CPE) Inhibition HSV-1 Strain F: key: +++ = Complete cytopathic effect; ++ = Moderate cytopathic effect; + = Minimum cytopathic effect; − = No cytopathic effect; assay type: cell-based, herpes simplex virus type 1; settings: for Cytopathic Effect (CPE) Inhibition HSV-1 Strain F: conc. per compound (ng/ml)
[2] = system: Primary human foreskin fibroblast cells (HFF); experiment: Cell proliferation assay (cytotoxicity) in HFF cells; assay type: cell-based; settings: for CC50: Human foreskin fibroblast cells, reduces growth of uninfected cells by 50%
[3] = system: HSV-1 (strain F); experiment: Plaque reduction assay, HSV-1 strain F in HEp-2 cells; assay type: cell-based, herpes simplex virus type 1
Protocol: HEp-2 cells were grown to monolayer in 24 well tissue culture plates in DMEM containing 10% fetal calf serum at 37° C. for 24-36 hours in the presence of 5% CO2. The monolayer of HEp-2 cells was infected with 0.1 ml of HSV- 1 (strain F) or HSV-2 (strain G) containing 100 pfu. The viruses were allowed to adsorb for 1 hour at 37° C. in the presence of 5% CO2. All wells containing virus infected cells except virus control were overlaid with 0.9 ml of DMEM and 1 ml of test compound. The virus control and cell control received DMEM only. All microtiter plates were incubated at 37° C. in the presence of 5% CO2 and observed twice daily for 72 hours for viral CPE. At the end of the experiment, plates were stained with 0.1% crystal violet and the results were quantified by counting plaque forming units.

[4] = system: HSV-2 strain MS; experiment: CPE inhibition assay, HSV-2 MS in human foreskin fibroblast cells; assay type: cell-based, herpes simplex virus type 2; settings: for EC50 HSV-2 MS: CPE inhibition in HFF cells; as to Qualitative CPE at 2.0 ml dose HSV-2 MS: key: +++ = Complete cytopathic effect; ++ = Moderate cytopathic effect; + = Minimum cytopathic effect; − = No cytopathic effect
[5] = system: HSV-1 (E377); experiment: Cutaneous HSV-1 infection in guinea pigs, topical ointment; assay type: in vivo, guinea pig; settings: topical ointment (2% betulin, 2% allobetulin, 5% Acyclovir) twice daily for 3 days
[6] = HFF cells, solution conc. per compound (ng/ml) (Acyclovir 250)

With `C=C(C)[C@@H]1CC[C@]2(CO)CC[C@]3(C)[C@H](CC[C@@H]4[C@@]5(C)CC[C@H](O)C(C)(C)[C@@H]5CC[C@]43C)[C@@H]12` [Betulin, lup-20(29)-ene-3β, 28-diol, reference compound] the “Cytopathic Effect (CPE) Inhibition HSV-1 Strain F” value [1] was “+”, the “anti HSV-1 activity (in words)” value ([1]; qualitative CPE inhibition assay) was “significant anti HSV-1 activity” and the “cytotoxicity (in words)” value ([2]; HFF cells) was “more toxic”. The “Qualitative Cytotoxic Effect at 2.0 ml dose” value ([2]; HFF cells, solution conc. per compound (ng/ml) (Acyclovir 250), 2.0 ml dose) was “−”, the CC50 [2] was 250 ng/mL (≈ 0.565 µM) and the “Plaque Reduction Assay Average pfu/10^5 Cells HSV-1 Strain F” value ([3]; conc. per compound as in column Conc. (ng/ml), HSV-1 virus control 5) was 0 pfu/10^5 Cells. For the same compound, the “Plaque Reduction Assay Average pfu/10^5 Cells HSV-1 Strain F” value ([3]; conc. per compound as in column Conc. (ng/ml), HSV-1 virus control 5, listed as betulin) was “no plaque”, the “EC50 HSV-2 MS” value [4] was roughly 0.125 µg/mL (≈ 0.282 µM) and the “anti HSV-2 activity (in words)” value ([4]; HFF cells, HSV-2) was “significant anti HSV-2 activity”. The “Qualitative CPE at 2.0 ml dose HSV-2 MS” value [4, 6] was “+” and the “effect on cutaneous HSV-1 infection (in words)” value [5] was “diminished the development of the clinical infectious process”.
With “acycloguanosine [Acyclovir, reference compound]” the “Cytopathic Effect (CPE) Inhibition HSV-1 Strain F” value [1] was “+++”, the CC50 ([2]; listed as Acyclovir ®) was greater than 12500 ng/mL and the CC50 ([2]; listed as Acyclovir®) was > 12,500 ng/ml. For the same compound, the “Plaque Reduction Assay Average pfu/10^5 Cells HSV-1 Strain F” value ([3]; Conc. 12500 ng/ml, HSV-1 virus control 5) was 0 pfu/10^5 Cells, the “Plaque Reduction Assay Average pfu/10^5 Cells HSV-1 Strain F” value ([3]; Conc. 12500 ng/ml, HSV-1 virus control 5, listed as Acyclovir®) was “no plaque” and the “EC50 HSV-2 MS” value [4] was 6 µg/mL. The “Qualitative CPE at 2.0 ml dose HSV-2 MS” value ([4]; HFF cells, Conc. 12500 ng/ml) was “+”, the “Qualitative CPE at 2.0 ml dose HSV-2 MS” value [4, 6] was “+++” and the “effect on cutaneous HSV-1 infection (in words)” value [5] was “diminished the development of the clinical infectious process”.
